In publication PMC12428582, “2-Styrylquinolines with Push-Pull Architectures as Sensors for β-Amyloid Aggregation with Theranostic Properties” (International Journal of Molecular Sciences, 2025):
Where two headings read alike, the source gives them in different places. Blank lines part the entries; values can stand above or below the compound they belong to.

Columns and labels:
[1] = target: T1, fibrils of β-amyloid peptide (human Aβ1–42) (Homo sapiens, UniProt P05067); experiment: Fluorescence titration of sensors with β-amyloid fibrils (Kd by non-linear fitting); format: binding; details: for Kd: fibrils of β-amyloid peptide, sensor 1.0 × 10^−6 M, protein 0 to 2.0 × 10^−6 M, ICT band excitation/emission maxima, read-out: Binding constants values (Kd) and standard deviations
T1 construct: amyloid β protein fragment 1–42 (MW = 4514.04); purchased Merck-Sigma-Aldrich
T1 sequence (P05067 672-713 limits assumed): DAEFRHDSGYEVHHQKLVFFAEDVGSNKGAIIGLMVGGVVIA
Protocol: Amyloid fibrils from human Aβ1–42 peptide were prepared using a procedure that combines several protocols described in the literature. A 2.2 × 10^−4 M solution of commercially available Aβ1–42 peptide was prepared in a small volume of 100 mM sodium phosphate buffer (pH = 7.04) containing EDTA in concentration 10 mM. This solution was incubated at 37 °C during 72 h in a dry bath supported on an orbital shaker working at 200 rpm. […] Subsequently, 10 μL of the freshly prepared amyloid beta fibrils (c = 1.0 × 10^−4 M) were added to each of the solutions containing the sensors. After a stabilization period of 10 min after each fibril addition at 37 °C, and then equilibration time of 5 min at room temperature, fluorescence emission spectra were recorded for each sensor at their excitation maxima.

[2] = target: T2, neurofibrillary tangles (phosphorylated tau) (Homo sapiens, UniProt P10636); experiment: Ex vivo staining of temporal neocortex of an Alzheimer's disease patient, AT8 antibody co-labelling; details: temporal neocortex of an AD patient; AT8 antibody detects phosphorylated tau
T2 sequence (P10636 623-758 limits assumed): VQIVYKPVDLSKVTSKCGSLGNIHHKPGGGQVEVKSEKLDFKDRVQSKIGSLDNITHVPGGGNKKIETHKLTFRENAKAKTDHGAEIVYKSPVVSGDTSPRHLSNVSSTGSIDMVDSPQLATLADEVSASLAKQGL
Protocol: (§1) AD human tissue samples were analyzed within the context of a previous study that utilized fixed coronal sections to investigate the progression of Alzheimer’s disease. Brain tissue samples from AD patients were obtained from the Banco de Tejidos Fundación CIEN (Dr. A. Rábano, Área de Neuropatología, Centro Alzheimer, Fundación Reina Sofía, Madrid, Spain). Immediately after removal, the brains were fixed in cold 4% paraformaldehyde in 0.1 M phosphate buffer (pH 7.4). After 2 h, the tissue was sectioned into small blocks and post-fixed in the same medium at 4 °C for 24–48 h. Serial coronal sections (50 μm thick) were prepared using a vibratome (St. Louis, MO, USA), cryoprotected in a 30% sucrose solution in 0.1 M phosphate buffer and stored in an ethylene glycol/glycerol solution at −20 °C until use. […]
(§2) Image acquisition was performed with a Zeiss LSM 710 confocal laser scanning system (Carl Zeiss Microscopy GmbH, Jena, Germany). They were recorded at 0.5 μm intervals (63 × objective) through separate channels, and ZEN 2012 software (Zeiss) was then used to construct composite images from each optical series by combining the images recorded through the different channels (image resolution 1024 × 1024 pixels; pixel size 188 nm). […]

[3] = target: T3, amyloid-beta plaques (Homo sapiens, UniProt P05067); experiment: Ex vivo staining of somatosensory cortex of APP/PS1 transgenic mice (confocal microscopy); details: plaques most distinctly labeled at 458 nm excitation, also 488 and 555 nm, none at 594 or 405 nm
T3 sequence (P05067 672-711 limits assumed): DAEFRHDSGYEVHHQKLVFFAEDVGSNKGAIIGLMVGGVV
Description: Compound 6b was chosen for an initial labeling study by assessing its binding properties in the somatosensory cortex of APP/PS1 transgenic mice, a model of Alzheimer’s disease that develops amyloid-beta deposits in the brain from 6 to 7 months of age. […] Amyloid-beta plaques were most distinctly labeled at an excitation wavelength of 458 nm, with effective staining also being observed at 488 nm and 555 nm (Figure 8A–D). In contrast, no staining was detected when exciting at 594 nm or 405 nm (Figure 8E,F).
The free-floating sections were rinsed in 0.1 M phosphate buffer (PB) and incubated for 2 h at room temperature with a 20 μM solution of each compound 6, prepared by diluting a 1.0 × 10^−4 M stock solution in DMSO with phosphate buffer. After incubation, the sections were rinsed again in 0.1 M phosphate buffer, mounted using ProLong Gold Antifade Reagent (Invitrogen Corporation, Carlsbad, CA, USA), and stored at −20 °C.
as §2

[4] = tested on: caspase-3 activity in HEK293-Tau3R cells; experiment: Caspase-3 activity in cells treated with okadaic acid (Ac-DEVD-AMC substrate); format: cell-based, human; details: for Caspase-3 activation induced by okadaic acid: 25 nM okadaic acid with compound at 10 or 100 nM; for Decrease of caspase-3 activity compared to cells treated with okadaic acid alone: 100 nM compound, 25 nM okadaic acid, p < 0.05
Protocol: HEK293-Tau3R cells in logarithmic growth phase were digested with trypsin at a concentration of 0.25% and then resuspended in the medium and subcultured in Petri dishes (100 × 15 mm) at a seeding density of 1.5 × 10^5 cells/mL. […] Upon completion of the treatment, cells were collected, washed twice with PBS (pH 7.4) and pelleted by centrifugation at 1000× g for 5 min. The pellet was then resuspended in PBS and centrifuged again at 1000× g for 10 min at 4 °C to remove the supernatant. The resulting cell pellets were lysed in a buffer containing 10 mM Tris–HCl (pH 7.5) with 0.5% CHAPS, 1 mM MgCl2, 1 mM EGTA, 1 mM EDTA, 10% glycerol, 5 mM β-mercaptoethanol, 1 mM DTT, 1 mM phenylmethylsulfonyl fluoride (PMSF), 100 μM leupeptin and 1 μM pepstatin. Following a 30 min incubation on ice, the lysates were clarified by centrifugation at 13,000× g for 5 min. Protein concentrations in the supernatants were determined using the bicinchoninic acid (BCA) assay.
The caspase 3 activity assay performed using the known fluorogenic substrate Ac-DEVD-AMC. HEK293-Tau3R cells were harvested, washed with ice-cold PBS and lysed in 100 μL of lysis buffer containing 50 mM HEPES (pH 7.4), 100 mM NaCl, 0.1% CHAPS, 10% glycerol, 10 mM DTT, 0.1 mM EDTA and protease inhibitors (1 μg/μL each of leupeptin, pepstatin and aprotinin). The lysates were, sonicated and centrifuged at 14,000× g for 15 min at 4 °C. For the assay, 20 μg of cellular protein from the lysates were incubated with 20 µM caspase 3 substrate in assay buffer (50 mM HEPES, pH 7.4, 100 mM NaCl, 0.1% CHAPS, 10% glycerol, 10 mM DTT) for 2 h at 37 °C. Substrate cleavage was monitored using a microplate fluorescence reader with excitation at 360 nm and emission at 460 nm. Caspase activity was determined based on the cleavage of the fluorogenic substrate and is expressed as fluorescence arbitrary units.

[5] = target: T3, amyloid-beta plaques; experiment: Ex vivo staining of temporal neocortex of an Alzheimer's disease patient, amyloid-beta antibody co-labelling; details: temporal neocortex of an AD patient; 20 μM compound, 2 h
Protocol: as §1, §2

[6] = target: T4, AcPHF6 (Ac-VQIVYK-NH2) tau-hexapeptide (Homo sapiens, UniProt P10636); experiment: AcPHF6 aggregation inhibition, Thioflavin T fluorescence; format: biochemical; details: 1 μM, non-toxic concentration; Figure 12
T4 construct: purchased Bachem (Bubendorf BL, Switzerland)
Protocol: This in vitro assay was performed using the N-acetylated and C-amidated hexapeptide AcPHF6 (Ac-VQIVYK-NH2), derived from the ^306VQIVYK^311 sequence found in the native […]. This region of the tau protein is involved in fibril aggregation processes and is commonly used as a model for screening tau aggregation inhibitors.
In brief, AcPHF6 peptide was dissolved in 50 mM phosphate buffer (pH 7.4) at a concentration of 1 mM and vortexed to obtain a homogeneous solution. For aggregation inhibition experiments, 100 μM AcPHF6 peptide was mixed with compounds 6 and incubated at 37 °C for 4 days. The degree of AcPHF6 aggregation was determined using Thioflavin-T fluorescence analyses.
Briefly, the screen of the styrylquinolines was performed based on Thioflavin T fluorescence. All assays were done on flat black 96-well plates. […] Immediately before the experiment, 1 μM heparin was added to initiate AcPHF6 aggregation. AcPHF6 alone in buffer reaction served as a control for the screen. Fluorescence values were taken at 24 h intervals for 72 h, at 37 °C and in replicates, using a microplate reader. […] All assays were performed at least twice to ensure reproducibility.

[7] = target: T5, Aβ1–42 peptide (Homo sapiens, UniProt P05067); experiment: Aβ1–42 aggregation inhibition, Thioflavin T fluorescence; format: biochemical; details: 0.5 μM compound; Figure 11
T5 construct: amyloid β protein fragment 1–42 (MW = 4514.04); purchased Merck-Sigma-Aldrich
T5 sequence (P05067 672-713 limits assumed): as the sequence (P05067 672-713 limits assumed) above
Protocol: A 0.5 mg/mL solution of Aβ1–42 peptide in 10% aqueous ammonium hydroxide was sonicated for 30 min to achieve monomerization. Solvent evaporation in a SpeedVac afforded a thin film that was dissolved in 60 mM NaOH, adjusting its concentration to 20 μM, as a stock solution. For aggregation inhibition experiments, 2 μM Aβ1–42 peptide was mixed with the styrylquinolines 6 and incubated for 4 days at 37 °C. The degree of Aβ aggregation was determined using Thioflavin-T fluorescence analysis.
All assays were done on flat black 96-well plates. […] Peptide Aβ1–42 alone in buffer reaction served as a control for the screen. Fluorescence values were measured at 37 °C in replicates using a microplate reader, with the measurement taken at 24 h intervals for 72 h. […] All assays were performed at least twice to ensure reproducibility.

[8] = tested on: Aβ42; design: method as in PMID 24900645; details: ThT-based fluorometric assay; cited from earlier work
[9] = target: β-amyloid protein; details: read-out: ThT-β-amyloid protein dissociation constant Kd, cited from earlier work
[10] = tested on: HEK293-Tau3R cells; experiment: Cell viability, MTT assay; format: cell-based, human; details: 10 to 50 nM for 24 h
Protocol: Cells were cultured in DMEM medium supplemented with 10% fetal bovine serum, 1 mM pyruvate, 2 mM glutamine and 0.2 mg/mL of the antibiotic zeocin. Cultures were maintained at 37 °C in a humidified atmosphere containing 5% CO2.
HEK293-Tau3R cells were seeded into 96-well polystyrene plates at a density of 20,000 cells per well and incubated at 37 °C for 24 h to allow cell adhesion. […] Cell viability was assessed by measuring metabolic activity through the reduction of MTT (3-(4,5-dimethylthiazol-2-yl)-2,5-diphenyltetrazolium bromide) to insoluble formazan. Absorbance values were measured at 550 nm using a microplate reader.

[11] = target: T2, neurofibrillary tangles (phosphorylated tau); design: method as in PMID 16914838; details: brain samples from AD patients; cited from earlier work

Kd [1]: 2.43 ± 0.32 µM
Compound: CN(C)c1ccc(/C=C/c2ccc3cc(C=C(C#N)C#N)ccc3n2)cc1 [6a, (E)-2-((2-(4-(Dimethylamino)styryl)quinolin-6-yl)methylene)malononitrile]

Compound: CCN(CC)c1ccc(/C=C/c2ccc3cc(C=C(C#N)C#N)ccc3n2)cc1 [6b, (E)-2-((2-(4-(Diethylamino)styryl)quinolin-6-yl)methylene)malononitrile]
Labeling of neurofibrillary tangles [2]: did not label neurofibrillary tangles
Kd [1]: 7.93 ± 0.63 µM
Labeling of amyloid-beta deposits [3]: specific binding to β-sheet amyloid structures
Caspase-3 activation induced by okadaic acid [4]: significantly reduced
Labeling of amyloid-beta plaques [5]: specifically labeled amyloid-beta plaques

Labeling of neurofibrillary tangles [2]: did not label neurofibrillary tangles
Kd [1]: 8.19 ± 0.61 µM
Compound: N#CC(C#N)=Cc1ccc2nc(/C=C/c3ccc(N4CCCCC4)cc3)ccc2c1 [6c, (E)-2-((2-(4-(Piperidin-1-yl)styryl)quinolin-6-yl)methylene)malononitrile]
Labeling of amyloid-beta plaques [5]: specifically labeled amyloid-beta plaques

Compound: N#CC(C#N)=Cc1ccc2nc(/C=C/c3ccc(N4CCOCC4)cc3)ccc2c1 [6d, (E)-2-((2-(4-Morpholinostyryl)quinolin-6-yl)methylene)malononitrile]
Kd [1]: 6.6 ± 0.79 µM
Caspase-3 activation induced by okadaic acid [4]: significantly reduced

Compound: CC(=O)OCCN(CCOC(C)=O)c1ccc(/C=C/c2ccc3cc(C=C(C#N)C#N)ccc3n2)cc1 [6e, (E)-((4-(2-(6-(2,2-Dicyanovinyl)quinolin-2-yl)vinyl)phenyl)azanediyl)bis(ethane-2,1-diyl) diacetate]
Kd [1]: 10.2 ± 1.53 µM
Caspase-3 activation induced by okadaic acid [4]: significantly reduced
Decrease of caspase-3 activity compared to cells treated with okadaic acid alone [4]: very similar results
AcPHF6 aggregation inhibition, ranking [6]: best result
Aβ1–42 aggregation inhibition, ranking [7]: most active compound

Compound: Cc1ccc2nc(/C=C/c3ccc(N)cc3)ccc2c1 [A]
Inhibition of Aβ42 aggregation [8]: moderate fibrillization inhibitor and amyloid binder

Compound: Cc1ccc2c(c1)sc(-c1ccc(N(C)C)cc1)[n+]2C [ThT, Thioflavin T]
Kd ([9]; ref 57): 0.8 µM
Kd ([9]; ref 58): 2.56 µM
Kd ([9]; ref 59): 30.4 µM
Kd ([9]; ref 60): 46 µM

Compound: C=C1[C@@H](O)[C@@H]2O[C@]3(CC[C@H](/C=C/[C@@H](C)[C@@H]4CC(C)=C[C@@]5(O[C@H](C[C@@](C)(O)C(=O)O)CC[C@H]5O)O4)O3)CC[C@H]2O[C@@H]1[C@@H](O)C[C@H](C)[C@H]1O[C@@]2(CCCCO2)CC[C@H]1C [okadaic acid, reference compound]
Concentrations at which a marked decline in cell viability was observed [10]: above 30 nM
Concentration from which caspase 3 activity began to rise ([4]; okadaic acid 10–50 nM): ≥ 25 nM

Compound: (E)-2-((2-(2-(4-(Dimethylamino)naphthalen-1-yl)vinyl)quinolin-6-yl)-methylene)malononitrile [6g]
Enhancement of fluorescence emission in the presence of beta-amyloid protein fibrils ([1]; excitation wavelength characteristic of each compound, Figure 6): greater difficulty in binding to the beta sheet structure of the protein
Caspase-3 activation induced by okadaic acid [4]: significantly reduced
Decrease of caspase-3 activity compared to cells treated with okadaic acid alone [4]: more than 50%

Compound: Thioflavin S
Binding to beta-sheet structures and phosphorylated tau [11]: bind both beta-sheet structures and phosphorylated tau
